Results from patent US10106577B2, “Agonists of neurotrophin receptors and their use as medicaments” (BIONURE FARMA, S.L., priority 2010, dated 2018).
Entries after “also recorded” stand apart in the source; their conditions may differ.

Assays:
PC12 cells [1] = assay: Dose response differentiation assay in PC12 cell line; format: cell-based; details: for number of differentiated cells in a field of 100 cells: after 3 days of treatment; for number of differentiated cells above the best working concentration: G79 at 50 μg/ml, G81 at concentrations higher than 100 ng/ml; for differentiation of PC12 cells (in words): compared to control PC12 untreated cells; for best working concentration for PC12 differentiation: tested 2-20-100 ng/ml and 2-20-50 μg/ml
Method: Stock of PC12 cultures were maintained in Ham's F12 medium supplemented with 2.5% fetal bovine serum (FBS), 15% of horse serum (HS) and 1% penicillin/streptomycin. The cell culture was maintained in 5% CO2 at 37° C.
PC12 cell differentiation was assessed by treating the cells with all the test compounds (G79, G80, and G81) at different testing concentration (2-20-100 ng/ml and 2-20-50 μg/ml). The cells were first plated into collagen-coated 24-wells plates with 2.5% FBS in the medium to be de-differentiated. After 72 hrs, the test compounds were added and NGF (Sigma Aldrich; 100 ng/ml) as positive control of differentiation. The number of differentiated cells, with neurite processes greater than two cell bodies in length, is counted after 3 days of treatment. The cell count is done in three randomly selected fields with 100 cells.

RN22 cells = assay: Survival assay in RN22 cells under CuSO4 oxidative stress (MTT); format: cell-based, rat; details: for cell viability of RN22 (in words): 1-10-50 ng/ml and 1-10 μg/ml, CuSO4 stress; for best working concentration for RN22 cell viability: tested 1-10-50 ng/ml and 1-10 μg/ml; for viability at 0.05 µg/mL: 50 ng/ml
Method: The rat schwannome cell line RN22 was cultured in Dulbecco's modified Eagle's medium (DMEM) with 10% FBS and 1% penicillin/streptomycin. The cell culture was maintained in 5% CO2 at 37° C.
RN22 were plated into 24-wells plates at the concentration of 30.000 cells/well in medium without serum. After 24 h, the test compounds G79, G80, and G81 were added at different concentrations (1-10-50 ng/ml and 1-10 μg/ml) and NGF was used as positive control of survival. The cells were so incubated for 2 hrs. Oxidative stress was induced with copper sulphate (CuSO4) at the final concentration of 150 μg/ml. After over-night incubation cell viability was determined by reading the absorbance after adding MTT (Sigma Aldrich).

PC12 cells [2] = assay: Receptor activation assay (PC12 differentiation with anti-TrkA antibody); format: cell-based
Method: The hypothesis that G79, G80, and G81 can act through the binding to the extracellular portion of TrkA (binding site) and activate the tyrosine kinase receptor was tested by treating the PC12 cells with the small chemicals in combination with the antibody anti-TrkA or the K252a, a tyrosine kinase inhibitor. For this purpose PC12 cells were plated into collagen-coated 24-wells plates with 2.5% FBS and after 72 hrs were incubated with the small molecules alone or in combination with anti-TrkA antibody (AbCam, 1:2000) or K252a. NGF (100 ng/ml) was used as control and added alone or in combination with anti-TrkA antibody or K252a. The number of differentiated cells was evaluated after three days of treatment. The cell count was done in three randomly selected fields with 100 cells.

SH-SY5Y cells [3] = assay: Parkinson's disease in vitro model (MPTP stress, MTT); format: cell-based, human; details: MPTP 100 μM, 24 hrs; pre-treated 3 hours; BDNF 20 ng/ml
Method: The human neuroblastoma cell line SH-SY5Y was maintained in culture with 50% Ham's F12 medium and 50% EMEM medium, supplemented with 10% FBS, […] L-glutamine and 1% penicillin/streptomycin. The cell culture was maintained in a humidified atmosphere of 95% air and CO2 at 37° C.
The SH-SY5Y cells after differentiation to neuronal phenotype with retinoic acid, were pre-treated for 3 hours with the test compounds at different concentrations (20 ng/ml, 100 ng/ml, 2 μg/ml, 20 μg/ml and 50 μg/ml) or BDNF (20 ng/ml) as a positive control. Then 1-methyl-4-phenyl-1,2,3,6-tetrahydropyridine (MPTP) (100 μM) was added and incubated for 24 hrs. The number of surviving cells was determined the day after by 3-(4,5-dimethylthiazol-2-yl)-2,5-diphenyltetrazolium bromide (MTT) assay.

SH-SY5Y cells [4] = assay: cells; format: cell-based, human; details: for protective effect against H2O2 oxidative stress (in words): H2O2 100 μM, 20 ng/ml to 50 μg/ml
Method: The cells were pre-treated for 3 hours with the test compounds at different concentrations (20 ng/ml, 100 ng/ml, 2 μg/ml, 20 μg/ml and 50 μg/ml) or BDNF (20 ng/ml) as a positive control. Then H2O2 (100 μM) was added and incubated for 24 hrs. The number of surviving cells was determined by MTT assay. […] In FIG. 5B, BDNF cell viability has been considered as the 100%. The H2O2 stress induced a decrease in the percentage of cell viability (no stress Ctr vs H2O2 stress=100±2% vs 95.9±0.5%). G79, compared to G80 and G81, is the one that exerted better protection, at the concentration of 20 ng/ml (BDNF vs G79=100±2.6 vs 107.4±5.8).

NSC-34 cells = assay: In vitro model of ALS, serum deprivation of motoneuron-like cells (MTT); format: cell-based, mouse; details: for neuroprotection on motorneurons challenged with serum deprivation (in words): 20 ng/ml to 50 μg/ml
Method: Mouse motoneuron-like cells NCS-34 were cultured in DMEM (Gibco) supplemented with 10% heat inactivated FBS and 1% penicillin/streptomycin. The cell culture was maintained in a humidified atmosphere of 95% air and CO2 at 37° C.
The nutritional deprivation stress in motorneurons was conducted as described previously in Masahito T. et al., J. Neuropathol. Exp. Neurol. 65(8):816-825 (2006). To assess the effect of trophic stress condition on ALS, the presence of apoptosis was investigated using serum deprivation. NSC-34 cells were seeded in 24-well poly-lysinated plates at 30,000 cells/well and preincubated for 24 h in DMEM plus 10% FBS with various doses of G79, G80, and G81 (20 ng/ml, 100 ng/ml, 2 μg/ml, 20 μg/ml, 50 μg/ml), and G-CSF (2 μg/ml) or BDNF (20 ng/ml) which both were used as positive controls (Masahito T. et al., ibid; Elliot J. L., Neurobiology of Disease 6:310-320 (1999)). Then, the medium was removed and replaced with fresh DMEM without FBS. After 48 h, cell viability was assayed by MTT assay, as described previously.

in vitro = details: rat (astrocytes)
[5] = in combination with anti-TrkA antibody (1:2000)
[6] = Rattus norvegicus, RN 22, CuSO4 150 μg/ml, read-out: cell viability, as % relative to the no-stress control

| Compound | number of differentiated cells in a field of 100 cells (PC12 cells [1]; 20 μg/ml) [cells] | number of differentiated cells above the best working concentration (PC12 cells [1]) | differentiation of PC12 cells (in words) (PC12 cells [1]) | best working concentration for PC12 differentiation (PC12 cells [1]) [ng/mL] | cell viability of RN22 (in words) (RN22 cells) | viability at 0.01 µg/mL (RN22 cells; Rattus norvegicus, RN 22, 10 ng/ml, CuSO4 150 μg/ml, read-out: cell viability, as % relative to the no-stress control) [%] | best working concentration for RN22 cell viability (RN22 cells) [ng/mL] | number of differentiated cells (PC12 cells [2]; [5]) | number of differentiated cells (PC12 cells [2]; treatment alone) | protection of neuronal cells against MPTP (surviving cells, MTT) (SH-SY5Y cells [3]) | protective effect against H2O2 oxidative stress (in words) (SH-SY5Y cells [4]) | viability at 0.02 µg/mL (SH-SY5Y cells [4]; Homo sapiens, SH-SY5Y, 24 h, read-out: cell viability, BDNF cell viability considered as the 100%) [%] | neuroprotection on motorneurons challenged with serum deprivation (in words) (NSC-34 cells) | viability at 0.1 µg/mL (NSC-34 cells; Mus musculus, NSC-34, 100 ng/ml, serum deprivation 48 h, read-out: cell viability, percentage relative to the control without stress) [%] | concentration of the best neuroprotective effect (NSC-34 cells; serum deprivation) [ng/mL] | Papp (in vitro) [×10⁻⁶ cm/s] | viability at 0.05 µg/mL (RN22 cells; [6]) [%] | number of differentiated cells in a field of 100 cells (PC12 cells [1]; 100 ng/ml) [cells] |
| --- | --- | --- | --- | --- | --- | --- | --- | --- | --- | --- | --- | --- | --- | --- | --- | --- | --- | --- |
| CC(C)CN(CC(=O)N(CCCN1CCCC1=O)CC(N)=O)C(=O)CNCCc1ccccc1F [Compound G79, [N-(2-(2′-Fluorophenyl)ethyl)glycyl]-[N-(2-methylpropyl)glycyl]-N-[3-(2′-oxopyrrolidinyl)propyl]glycinamide] | 11.3±2.68 | decreases | induce the differentiation of PC12 cells | 20000 | increased cell viability at all tested concentrations | 98.1 | 10 | 19.6±8.1 | 11.5±2.8 | Prevent Neuronal Death; also recorded: significant protection of neuronal cells | protective effect | 107 ± 5.8 | exerted neuroprotection | 98.1 ± 6.14 | 100 | 4.1 | – | – |
| CC(C)CN(CC(=O)N(CCc1ccc(S(N)(=O)=O)cc1)CC(N)=O)C(=O)CNCCc1ccccc1F [Compound G80, [N-(2-(2′-Fluorophenyl)ethyl)glycyl]-[N-(2-methylpropyl)glycyl]-N-[2-(4′-sulfamoylphenyl)ethyl]glycinamide] | – | – | induce the differentiation of PC12 cells; also recorded: good differentiation with very long neurites | 20 | increased cell viability at all tested concentrations | – | 50 | 14.6±4.1 | 15.1±6.3 | Prevent Neuronal Death | protective effect | – | exerted neuroprotection | – | – | 2.8 | 99.9 | – |
| CC(C)CN(CC(=O)N(CCc1ccc(S(N)(=O)=O)cc1)CC(N)=O)C(=O)CNCCN1CCCC1 [Compound G81, [N-(2-(1-Pyrrolidinyl)ethyl)glycyl]-[N-(2-methylpropyl)glycyl]-N-[2-(4′-sulfamoylphenyl)ethyl]glycinamide] | – | decreases | induce the differentiation of PC12 cells; also recorded: significant differentiation | 100 | increased cell viability at all tested concentrations | – | 50 | 16.5±5.9 | 14.1±3.3 | Prevent Neuronal Death | protective effect | – | exerted neuroprotection | – | – | 2.1 | 102 | 9.2±3.9 |
